Laboratory results taken from patent US20250320213A1, “Nitrogen-Containing Heterocyclic Compounds” (Pfizer Inc., priority 2024, published 2025).
Where two headings read alike, the source gives them in different places.

Key:
STAT6 = target: T1, STAT6 (Homo sapiens, UniProt P42226); test: STAT6 Reporter Luciferase Assay (IL-13 stimulated HaCaT keratinocyte NanoLuc reporter cells); type: cell-based; details: read-out: Reporter EC50
T1 construct: stably transfected HaCaT keratinocyte cell line, which expresses NanoLuc luciferase reporter gene under the transcriptional control of the STAT6 responsive promoter; endogenous in cells; host or cells: HaCaT keratinocyte reporter cell line (stably transfected with a NanoLuc reporter)
T1 sequence (P42226 1-847): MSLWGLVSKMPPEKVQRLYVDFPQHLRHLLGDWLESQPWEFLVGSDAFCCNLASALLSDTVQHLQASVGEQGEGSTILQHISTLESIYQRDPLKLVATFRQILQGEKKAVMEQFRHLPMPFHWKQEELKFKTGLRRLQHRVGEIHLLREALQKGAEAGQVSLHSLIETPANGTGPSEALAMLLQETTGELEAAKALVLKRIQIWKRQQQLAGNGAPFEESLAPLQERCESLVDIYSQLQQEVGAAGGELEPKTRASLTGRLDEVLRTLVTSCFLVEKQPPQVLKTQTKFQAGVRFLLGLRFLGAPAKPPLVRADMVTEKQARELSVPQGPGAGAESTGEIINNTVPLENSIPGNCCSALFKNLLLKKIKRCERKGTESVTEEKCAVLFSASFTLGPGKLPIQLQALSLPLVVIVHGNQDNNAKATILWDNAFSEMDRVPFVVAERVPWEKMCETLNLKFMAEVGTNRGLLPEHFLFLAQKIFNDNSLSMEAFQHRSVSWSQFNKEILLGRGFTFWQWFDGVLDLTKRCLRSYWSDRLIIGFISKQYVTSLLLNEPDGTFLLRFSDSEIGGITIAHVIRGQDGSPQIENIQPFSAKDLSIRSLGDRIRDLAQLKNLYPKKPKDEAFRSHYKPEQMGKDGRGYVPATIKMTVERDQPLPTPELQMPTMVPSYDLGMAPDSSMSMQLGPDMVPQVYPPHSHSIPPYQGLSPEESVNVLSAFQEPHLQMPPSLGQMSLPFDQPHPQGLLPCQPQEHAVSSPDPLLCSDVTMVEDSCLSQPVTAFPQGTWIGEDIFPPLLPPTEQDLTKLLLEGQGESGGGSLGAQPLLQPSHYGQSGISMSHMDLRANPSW
Procedure, shortened: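 Stably transfected HaCaT cells carrying NanoLuc under the STAT6-responsive IL-13Ra2 promoter were pre-treated with compound (11-point, 4-fold series, duplicate) for 2 h at 37 °C, then stimulated with 0.12 nM IL-13 for 4 h. Nano-Glo luminescence was read after 15 min.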

[1] = test system: CCL17 secretion in peripheral human whole blood; test: Human Whole Blood (HWB) CCL17 TR-FRET Assay (IL-13 stimulated CCL17 secretion); type: cell-based
Procedure, shortened: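 Heparinized human whole blood was preincubated with compound (11-point, 3-fold series) for 2 h at 37°C, then stimulated with IL-13 (10 ng/mL final) for 48 h. Serum CCL17 was measured by TR-FRET sandwich immunoassay (665/615 nm ratio) after 16 h at room temperature, giving IC50.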

[2] = STAT6 NanoLuc luciferase reporter, IL-13 stimulated HaCaT keratinocyte cells
[3] = Homo sapiens, 48 h, inhibition of CCL17 secretion in human whole blood, 10 ng/mL IL13, 48 hours
[4] = IL-13 stimulated HaCaT STAT6 NanoLuc reporter cells
[5] = Homo sapiens, 48 h, human whole blood, 10 ng/mL IL13, 48 hours
[6] = Homo sapiens, 48 h, human whole blood, IL-13 stimulated

Compound	EC50 (STAT6; [4]) [nM]	IC50 [1, 5] [nM]	other results
CC(C)n1nc(C(=O)NCc2ccc(NC(=O)N3CC(N(C)C)C3)cc2)c2c1CCN(c1ccc(C(=O)N(C)C)cn1)C2 [Example 141, N-(4-(3-(dimethylamino)azetidine-1-carboxamido)benzyl)-5-(5-(dimethylcarbamoyl)pyridin-2-yl)-1-isopropyl-4,5,6,7-tetrahydro-1H-pyrazolo[4,3-c]pyridine-3-carboxamide]			EC50 (STAT6; [2]): 22 nM; IC50 [1, 3]: 78 nM
CC(C)n1nc(C(=O)NCc2ccc(NC(=O)N3CCN(C)CC3)c(F)c2)c2c1[C@@H](C)CN(c1ccc(C(=O)N(C)C)cn1)C2 [Example 606, (S)-5-(5-(dimethylcarbamoyl)pyridin-2-yl)-N-(3-fluoro-4-(4-methylpiperazine-1-carboxamido)benzyl)-1-isopropyl-7-methyl-4,5,6,7-tetrahydro-1H-pyrazolo[4,3-c]pyridine-3-carboxamide]	1	9	
CCC(C)(C)n1nc(C(=O)NCc2ccc(NC(=O)N(C)C)cc2)c2c1CCN(c1ccc(C(=O)N(C)C)cn1)C2 [Example 261, 5-(5-(dimethylcarbamoyl)pyridin-2-yl)-N-(4-(3,3-dimethylureido)benzyl)-1-(tert-pentyl)-4,5,6,7-tetrahydro-1H-pyrazolo[4,3-c]pyridine-3-carboxamide]	3570		IC50 [1, 6]: > 30000 nM
CC(C)n1nc(C(=O)NCc2ccc(NC(=O)NCC3CCOC3)cc2)c2c1CCN(c1ccc(C(=O)N(C)C)cn1)C2 (racemic) [Example 155, rac-(R)-5-(5-(dimethylcarbamoyl)pyridin-2-yl)-1-isopropyl-N-(4-(3-((tetrahydrofuran-3-yl)methyl)ureido)benzyl)-4,5,6,7-tetrahydro-1H-pyrazolo[4,3-c]pyridine-3-carboxamide]			EC50 (STAT6; [2]): 12 nM; IC50 [1, 3]: 141 nM
Cc1c[nH]c(-c2ccc(CNC(=O)c3nn(C(C)C)c4c3CN(c3ncc(N5CCOC5=O)cn3)C[C@@H]4C)cc2)n1 [Example 519, (S)-1-isopropyl-7-methyl-N-(4-(4-methyl-1H-imidazol-2-yl)benzyl)-5-(5-(2-oxooxazolidin-3-yl)pyrimidin-2-yl)-4,5,6,7-tetrahydro-1H-pyrazolo[4,3-c]pyridine-3-carboxamide]	8		IC50 [1, 6]: 219 nM
CC(C)n1nc(C(=O)NCc2ccc(NC(=O)N3CC4(CCN(C)C4)C3)c(F)c2)c2c1[C@@H](C)CN(c1ccc(C(=O)N(C)C)cn1)C2 [Example 603, (S)-5-(5-(dimethylcarbamoyl)pyridin-2-yl)-N-(3-fluoro-4-(6-methyl-2,6-diazaspiro[3.4]octane-2-carboxamido)benzyl)-1-isopropyl-7-methyl-4,5,6,7-tetrahydro-1H-pyrazolo[4,3-c]pyridine-3-carboxamide]	3	31	
CCn1nc(C(=O)NCc2ccc(NC(=O)N(C)C)cc2)c2c1C1(CC1)CN(c1ccc(C(=O)N(C)C)cn1)C2 [Example 555, 5′-(5-(dimethylcarbamoyl)pyridin-2-yl)-N-(4-(3,3-dimethylureido)benzyl)-1′-ethyl-1′,4′,5′,6′-tetrahydrospiro[cyclopropane-1,7′-pyrazolo[4,3-c]pyridine]-3′-carboxamide]	5	52	
COC[C@H]1CN(C(=O)Nc2ccc(CNC(=O)c3nn(C(C)C)c4c3CN(c3ccc(C(=O)N(C)C)cc3)C[C@@H]4C)cc2)CCN1 [Example 577, (S)-5-(4-(dimethylcarbamoyl)phenyl)-1-isopropyl-N-(4-((R)-3-(methoxymethyl)piperazine-1-carboxamido)benzyl)-7-methyl-4,5,6,7-tetrahydro-1H-pyrazolo[4,3-c]pyridine-3-carboxamide]	1	4	
CO[C@H]1CN(C(=O)Nc2ccc(CNC(=O)c3nn(C(C)C)c4c3CN(c3ccc(C(=O)N(C)C)cn3)CC4)cc2)C[C@@H]1O [Example 166, 5-(5-(dimethylcarbamoyl)pyridin-2-yl)-N-(4-((3S,4S)-3-hydroxy-4-methoxypyrrolidine-1-carboxamido)benzyl)-1-isopropyl-4,5,6,7-tetrahydro-1H-pyrazolo[4,3-c]pyridine-3-carboxamide]			EC50 (STAT6; [2]): 4 nM; IC50 [1, 3]: 21 nM
CC(C)n1nc(C(=O)NCc2ccc(NC(=O)N(C)C)cc2)c2c1CCN(c1ccc(CC(N)=O)cn1)C2 [Example 430, 5-(5-(2-amino-2-oxoethyl)pyridin-2-yl)-N-(4-(3,3-dimethylureido)benzyl)-1-isopropyl-4,5,6,7-tetrahydro-1H-pyrazolo[4,3-c]pyridine-3-carboxamide]	333		IC50 [1, 6]: 1410 nM
CC(C)n1nc(C(=O)NCc2ccc(NC(=O)N3CC4(CN(C)C4)C3)c(F)c2)c2c1[C@@H](C)CN(c1ccc(C(=O)N(C)C)cn1)C2 [Example 604, (S)-5-(5-(dimethylcarbamoyl)pyridin-2-yl)-N-(3-fluoro-4-(6-methyl-2,6-diazaspiro[3.3]heptane-2-carboxamido)benzyl)-1-isopropyl-7-methyl-4,5,6,7-tetrahydro-1H-pyrazolo[4,3-c]pyridine-3-carboxamide]	4	29	
CC(C)n1nc(C(=O)NCc2ccc(NC(=O)N3CCNCC3)cc2F)c2c1[C@@H](C)CN(c1ccc(C(=O)N(C)C)cc1)C2 [Example 589, (S)-5-(4-(dimethylcarbamoyl)phenyl)-N-(2-fluoro-4-(piperazine-1-carboxamido)benzyl)-1-isopropyl-7-methyl-4,5,6,7-tetrahydro-1H-pyrazolo[4,3-c]pyridine-3-carboxamide]	3	19	
CNC(=O)c1ccc(CNC(=O)c2nn(C(C)C)c3c2CN(c2ccc(C(=O)N(C)C)cn2)C[C@@H]3C)cc1 [Example 341, (S)-5-(5-(dimethylcarbamoyl)pyridin-2-yl)-1-isopropyl-7-methyl-N-(4-(methylcarbamoyl)benzyl)-4,5,6,7-tetrahydro-1H-pyrazolo[4,3-c]pyridine-3-carboxamide]	4		IC50 [1, 6]: 28 nM
CC(C)c1nc(C(=O)NCc2ccc(NC(=O)N(C)C)cc2)c2n1C(C)CN(c1ccc(C(=O)N(C)C)cc1)C2 (single isomer, unassigned) [Example 539, rel-(R or S)-7-(4-(Dimethylcarbamoyl)phenyl)-N-(4-(3,3-dimethylureido)benzyl)-3-isopropyl-5-methyl-5,6,7,8-tetrahydroimidazo[1,5-a]pyrazine-1-carboxamide]	13		IC50 ([1]; human whole blood, 10 ng/mL IL13, 48 hours): 72 nM
CN(C)C(=O)Nc1ccc(CNC(=O)c2nn(C)c3c2CN(c2ccc(-c4nccn4C)cn2)CC3)cc1 [Example 12, N-(4-(3,3-Dimethylureido)benzyl)-1-methyl-5-(5-(1-methyl-1H-imidazol-2-yl)pyridin-2-yl)-4,5,6,7-tetrahydro-1H-pyrazolo[4,3-c]pyridine-3-carboxamide]			EC50 (STAT6; [2]): 16 nM; IC50 [1, 3]: 93 nM
C[C@H]1c2c(C(=O)NCc3ccc(NC(=O)N(C)C)cc3)nn(C)c2CCN1c1ccc(C(=O)N(C)C)cn1 (single isomer, unassigned) [Example 444]	158		IC50 [1, 6]: 1380 nM
CC(C)n1nc(C(=O)NCc2ccc(NC(=O)N3CC4(CCN4)C3)cc2)c2c1[C@@H](C)CN(c1ccc(C(=O)N(C)C)cc1)C2 [Example 621, (S)-N-(4-(1,6-diazaspiro[3.3]heptane-6-carboxamido)benzyl)-5-(4-(dimethylcarbamoyl)phenyl)-1-isopropyl-7-methyl-4,5,6,7-tetrahydro-1H-pyrazolo[4,3-c]pyridine-3-carboxamide]	7	31	
